Test results taken from patent publication US12263182B2, “Method of introducing an mRNA molecule into a cell” (PCI Biotech AS, priority 2018, dated 2025).

Columns and labels:
skin of mice = assay: Intradermal naked luciferase mRNA delivery with PCI, bio-luminescence imaging (IVIS) of injection sites; format: in vivo; conditions: for effect on mRNA delivery (fold increase in luminescence vs mRNA only): Example 1C, 2 μg unmodified mRNA L-6307, 0.003 μg TPCS2a
Protocol: Firefly luciferase mRNA (1921 nucleotides in length; L-6107—with modified bases 5-methylcytidine (5meC) and pseudo-uridine (ψ); L-6307—unmodified mRNA; L-7202—with modified base 5-methoxyuridine (5moU), and with the TriLink CleanCap™ modification as the capping structure, purchased from TriLink Biotechnologies, San Diego, USA) and TPCS2a (Amphinex®, PCI Biotech AS, Norway) were mixed in a volume of 20 μl PBS and the mixture was injected into the skin of mice at time 0. Different doses were used in different experiments, and in control samples no TPCS2a was used. Injections were performed in 4 sites (A-D) per mouse (see FIG. 1 and diagram and table below), and the injection sites were illuminated in general 60 min after mRNA/TPCS2a injection. With this set-up the two sites in each animal not receiving TPCS2a act as controls internal to each animal. This is useful for being able to correct for possible differences between animals e.g. in the injection and distribution of luciferin prior to the bio-luminescence imaging.
Injection sites were illuminated with blue light (wavelength between 400 and 540 nm with a peak at around 435 nm) from the LumiSource illumination device.
4-6 or 20-24 hours after illumination luciferase activity at the injection sites was analysed by bio-luminescence imaging in the IVIS instrument (IVIS Spectrum, model 124375R from PerkinElmer). Pictures were taken 20 min after luciferin injection, and bio-luminescence in a defined region-of-interest (ROI) around each injection site was quantified. The procedure for IVIS imaging was as follows: i) The mice were given an intraperitoneal injection of 3 mg D-Luciferin (200 μl of 15 mg/ml stock).
ii) After approximately 10 min, the mice were anaesthetized by a subcutaneous injection of Zoletil (10-15 mg/kg xylasin, 5-10 mg/kg butorphanol and 15-20 mg/kg Zoletil (containing zolazepam and tiletamine)).
iii) 20 min after D-luciferin injection, mice were placed in the IVIS instrument and pictures were taken with automatic exposure of Luminescence (Andor camera IS0825R4582; iKon Living Image version: 4.5.2.18424. Binning factor: 8; Excitation filter: Block; Emission filter: Open; f Number: 1)
iv) The bio-luminescence in ROIs covering each injection site was measured to quantify luciferase expression. The detailed set-up of a typical experiment (Example 1) can be found in Table 1.
Animals were injected by mRNA and TPCS2a as described under Methods and treated as described in Table 1 with the sites shown in FIG. 8.
3 μg mRNA and different amounts of TPCS2a (ranging from 0.0003 μg to 10 μg) were mixed and injected into the skin of mice as described under Methods. 60 min after the injections the mice were illuminated for 6 (in general) or 3 min (in one case) with blue light from the LumiSource illumination device. The animals were injected with luciferin and imaged in the IVIS instrument as described under Methods. The luminescence in defined regions of interest round the injection sites was assessed in the IVIS instrument. For each animal the luminescence at the sites receiving mRNA+TPCS2a was compared to the luminescence at the sites receiving mRNA only, and the fold increase (FI) in luminescence at the TPCS2a injected sites in each animal was calculated by the formula FI=luminescencemRNA+TPCS2a/luminescencemRNA only. […]
Lipofectamine is a very efficient transfection agent commonly used for delivery of mRNA and other nucleic acids; and it has also been used for mRNA delivery in vivo (Zangi et al., 2013, supra). However several type of toxic reactions have been observed with in vivo use of lipofectamine, limiting the possibilities for clinical use of this transfection agent. […]

TC-1 tumours = assay: Intratumoural luciferase mRNA delivery with PCI (red light 652 nm), luciferase enzymatic assay on tumour homogenates; format: in vivo, mice; conditions: Example 2
Protocol: An experiment was performed to study in vivo naked mRNA delivery to TC-1 tumours (model for HPV-induced tumours) in mice.
In these experiments the TC-1 tumour model for HPV-induced cancer was employed. mRNA delivery was assessed by performing a luciferase enzymatic assay on homogenates from tumours harvested the day after illumination. Red light laser light illumination with a wavelength of 652 nm was used. The experiment was performed as follows: • Luciferase mRNA (L-7202 CleanCap™ FLuc mRNA (5moU)) from TriLink, 3 μg per injection) was mixed with TPCS2a and injected into the tumours in an injection volume of 20 μl. • 60 min after mRNA/TPCS2a injection the tumours were illuminated with different doses of red laser light (at 652 nm) for 12.5-500 seconds. • The day after illumination, all tumours were removed and frozen for later enzymatic assay for luciferase (Luciferase Assay System, Promega, Cat #E1500). • The protein content in the samples was measured with the RC DC Protein Assay kit (BioRad) assay, and the relative amounts of active luciferase in each sample was calculated as Relative Luminescence Units (RLU: Arbitrary units) per mg of protein.

MC-38 tumours = assay: Intratumoural luciferase mRNA delivery with PCI (blue light), luciferase enzymatic assay on tumour homogenates; format: in vivo, mice; conditions: Example 3, 6 min blue light
Protocol: An experiment was performed to study in vivo naked mRNA delivery to colon adenocarcinoma tumours (MC-38 tumours) in mice.
The experiment was performed with Luciferase-encoding modified mRNA, and the effect was analysed by an enzymatic luciferase assay on tumour extracts, with tumours harvested 20 hours after illumination. Each animal had two tumours (A and B) that were injected and analysed separately.
TriLink modified luciferase mRNA (T14-GU03A), 3 μg was used per injection.
Female mice of the strain C57BL/6 (Charles River) were be used. Animal identification and conditions of housing, acclimatisation, environment, diet and water was in accordance with the current Standard Operating Procedures at the animal facilities at Oslo University Hospital—The Radium Hospital.
The animals were inoculated with 500 000 MC-38 cells per tumour, 2 tumours per animal. The size of the tumours on mRNA injection was 60-150 mm^3. Animals were randomized by tumour volume, animals with tumour ulcers were excluded. mRNA was mixed with TPCS2a and the mixture (25 μl) was injected into the tumours at time 0. The pure (naked) mRNA was injected at the same time point.
The injections were performed with gas anesthesia (Sevoflurane). The aim of the injection was to deposit a solution in the centre of the outer third of the tumour, avoiding the central core of the tumour. Insulin syringes were used to deliver the 25 μl of treatment.
The tumours in the PCI groups were illuminated (blue light from LumiSource) 60 min after mRNA/TPCS2a injection according to Table 5. The day after mRNA administration (i.e. around 20 hours after illumination) animals were killed and all tumours were removed and frozen for later homogenization and enzymatic assay for luciferase (Luciferase Assay System, Promega, Cat #E1500). After homogenization the amount of protein in the tumour extract was determined using the RC-DC Protein Assay (Bio-Rad Hercules, California, USA) and the luciferase enzymatic activity per mg tumour was calculated.

## tetraphenyl chlorin disulfonate [TPCS2a]
Skin of mice; Example 1A, 12 sites each, 2 μg mRNA + 0.003 μg TPCS2a intradermal, 6 min blue light
  enhancement of mRNA delivery by PCI, mean of all animals versus mRNA only: about 3 times
Skin of mice; Example 1A, animal 6, 2 μg luciferase mRNA L-6107 + 0.003 μg TPCS2a intradermal, 6 min blue light, imaged 4 h after illumination
  mean bio-luminescence for the PCI treated sites versus the mRNA only sites: more than 5 times
Skin of mice; Example 1B, 3 μg mRNA, 0.003 μg TPCS2a, 6 and 3 min blue light
  effect on mRNA delivery, 6 versus 3 min illumination: comparable enhancement of mRNA delivery
Skin of mice; Example 1B, 3 μg mRNA, TPCS2a dose of 0.0003 μg, blue light
  effect on mRNA delivery (luciferase expression, fold increase vs mRNA only): improved mRNA delivery
Skin of mice; Example 1B, 3 μg mRNA, TPCS2a doses above 0.3 μg (PCI10, PCI3, PCI1), 6 min blue light
  effect on mRNA delivery (luciferase expression, fold increase vs mRNA only): strongly detrimental effect on mRNA delivery
Skin of mice; Example 1B, 3 μg mRNA, TPCS2a doses of 0.01 μg and below, 6 min blue light
  effect on mRNA delivery (luciferase expression, fold increase vs mRNA only): significant enhancement of mRNA delivery
Skin of mice; Example 1B, 3 μg mRNA, TPCS2a doses of 0.3 to 0.03 μg, 6 min blue light
  effect on mRNA delivery (luciferase expression, fold increase vs mRNA only): did not alter luciferase expression significantly
Skin of mice; 0.5 min blue light
  effect on mRNA delivery (fold increase in luminescence vs mRNA only): enhanced mRNA delivery
Skin of mice; 4 min blue light
  effect on mRNA delivery (fold increase in luminescence vs mRNA only): enhanced mRNA delivery
Skin of mice; Example 1D, 2 μg mRNA L-7202 intradermal, 0.003 μg TPCS2a, 6 min blue light, imaged 4 h after illumination, comparator 6 μl lipofectamine
  improvement of mRNA translation over what was achieved with lipofectamine: ~4 times
TC-1 tumours; 3 μg mRNA + 0.1 μg TPCS2a, red light 652 nm
  optimum illumination dose for PCI-enhanced mRNA delivery: around 2 J/cm^2
TC-1 tumours; 3 μg mRNA + 0.1 μg TPCS2a, without illuminating the tumours
  effect on mRNA delivery versus mRNA alone (RLU/mg protein): did not seem to enhance mRNA delivery significantly
TC-1 tumours; 3 μg mRNA L-7202 + 0.1 μg TPCS2a intratumoural, red light 0.1 to 4 J/cm^2, tumours harvested day after illumination
  effect on mRNA delivery and translation (RLU/mg protein): strong enhancement of mRNA delivery and translation
MC-38 tumours; 3 μg mRNA + 0.001-0.01 μg TPCS2a intratumoural, harvested 20 h after illumination
  effect on luciferase mRNA delivery (luciferase enzymatic activity in tumour homogenates, single tumours): substantially enhanced luciferase mRNA delivery
MC-38 tumours; 0.003/6 min group: 3 μg mRNA + 0.003 μg TPCS2a
  PCI-induced improvement in mRNA delivery compared to mRNA without PCI (group means): about 3 times
MC-38 tumours; 0.01/6 min group: 3 μg mRNA + 0.01 μg TPCS2a
  PCI-induced improvement in mRNA delivery compared to mRNA without PCI (group means): about 10 times
